This passage reports Kis and Kii results from ChEMBL document CHEMBL2434938, “Identification of new inhibitors for low molecular weight protein tyrosine phosphatase isoform B” (Bioorg Med Chem Lett, 2013).

Test [1] addresses Low molecular weight phosphotyrosine protein phosphatase (Homo sapiens) (UniProt P24666). Briefly: Competitive inhibition of human GST-tagged LMW-PTP-B expressed in Escherichia coli JM 109 cells using p-nitrophenyl phosphate as substrate after 15 mins by microplate reader analysis.
The target is the same in test [2]. Briefly: Uncompetitive inhibition of human GST-tagged LMW-PTP-B expressed in Escherichia coli JM 109 cells using p-nitrophenyl phosphate as substrate after 15 mins by microplate reader analysis.
The target is the same in test [3]. Briefly: Competitive inhibition of LMW-PTP-B (unknown origin).

Sequence of Low molecular weight phosphotyrosine protein phosphatase (Homo sapiens) (P24666 whole entry, looked up): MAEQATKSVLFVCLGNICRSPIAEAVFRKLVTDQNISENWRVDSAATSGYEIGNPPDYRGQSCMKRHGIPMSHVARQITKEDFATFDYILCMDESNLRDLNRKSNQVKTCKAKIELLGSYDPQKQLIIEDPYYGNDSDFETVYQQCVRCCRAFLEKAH

`O=C(O)CCCC[C@@H]1SC[C@@H]2NC(=O)N[C@@H]21` returned a Kis in test [1] of 2330 µM.
The same measure, in the same setting: with `Cc1cc(C)c2c(SC(C)C)nc(N)nc2n1` the figure was 925 µM; with `COC(=O)[C@@H]1[C@H](O)[C@H](C)[C@H](O)[C@H](C)/C=C\C=C(/C)C(=O)Nc2c(C)c(OC(C)=O)c3c(c2O)C(=O)C(C)=C2OCOC(=C23)/C(C)=C/[C@@](C)(O)[C@H](O)[C@@H](C)[C@H]1O`, 93.9 µM.
The same measure, in the same setting: with `O=C(O)c1ccc2c(c1Nc1ccccc1)C(=O)c1ccccc1C2=O` the figure was 161 µM; with `COc1ccc2nc3cc(Cl)ccc3c(C#N)c2c1`, > 450 µM.
On the same count and under the same terms, under `c1ccc(CSc2nc3c[nH]cnc-3n2)cc1` stands > 450 µM; under `CC1=C[C@H](O)[C@@H](O)[C@]2(C)[C@H]3[C@@]4(O)OC[C@]35[C@H]([C@@H](C)[C@H]4O)[C@@H](O)C(=O)O[C@@H]5C[C@@H]12`, > 450 µM.
As for `Cc1c2cc(O)c(=O)cc-2oc2cc(O)c(O)cc12`, in test [2], the Kii was 31.7 µM. In addition, the Kis in test [1] was 13.5 µM.
The compound `Cc1ccc([N+](=O)[O-])cc1NC(=O)Nc1ccc(S(N)(=O)=O)cc1` showed a Kis in test [1] of 2230 µM.
The same measure, in the same setting: under `CC(C)(C)c1ccc(OCC(=O)O)cc1` stands > 450 µM.
The same measure, in the same setting: under `O=C(O)c1nn(-c2ccccc2-c2nnc(O)nc2O)c(=O)[nH]c1=O` stands 1650 µM; under `O=C(O)c1ccc(N2CCCCC2)cc1O`, > 450 µM.
`CCO[C@H]1CCc2c(C)nc(N)nc2S1` registered a Kii in test [2] of 122 µM.
In the case of `Nc1o[nH]c(=O)c1C1CCCCC1`, the Kis in test [1] is > 450 µM.
The same measure, in the same setting: under `O=C(/C=C/c1ccc(O)c(O)c1)OC1[C@@H](O)CC(OC(=O)/C=C/c2ccc(O)c(O)c2)(C(=O)O)C[C@@H]1O` (stereo not given in full) stands 635 µM; under `O=c1oc2c(cc1O)oc(=O)c1cc(O)c(O)c(O)c12`, 10.8 µM.
On the same count and under the same terms, with `O=C(O)C1OCC2(CO1)COC(C(=O)O)OC2` (stereo not given) the figure was > 450 µM.
On the same count and under the same terms, with `Nc1nc(SCc2ccccn2)c2ncn([C@@H]3O[C@H](CO)[C@@H](O)[C@H]3O)c2n1` the figure was > 450 µM; with `O=C(O)/C=C/C(=O)N1Cc2cc3ccccc3nc2C1`, 493 µM.
Take `O=C1c2ccccc2C(=O)c2[nH]cnc21`: the Kii in test [2] amounted to 7.97 µM.
As for `OCC(O)C1OCOC(C(O)CO)C1O` (stereo not given), the Kis in test [1] was > 450 µM.
Same read-out and setting: with `Cn1c(=O)c2nc(CNc3ccc(C(=O)O)cc3)[nH]c2n(C)c1=O` the figure was 1560 µM.
Consider `Cc1ncc(COP(=O)(O)O)c(C=O)c1O`, for which the Kis was 7.6 µM in test [3] and 3.73 µM in test [1].
Regarding `Nc1nc(N)nc([C@@H]2C=CCCC2)n1`, in test [1], the Kis is > 450 µM.
Still for that read-out and setting: with `Cc1cccc(N=C(S)Nc2cccc(C)n2)n1` the figure was > 450 µM; with `C[C@@H]1O[C@@H](Oc2c(-c3cc(O)c(O)c(O)c3)oc3cc(O)cc(O)c3c2=O)[C@H](O)[C@H](O)[C@H]1O`, > 126 µM.
Same read-out and setting: under `O=c1c(O)cccc2cc(O)c(O)c(O)c12` stands 10.4 µM; under `N=C(N)n1c(N)nc2ccccc2c1=O`, 1180 µM.
The same measure, in the same setting: with `CCCCSc1cc(C)nc(N)n1` the figure was > 450 µM; with `CC(C)c1nc2c(=O)n(C)c(=O)n(C)c2[nH]1`, > 450 µM; with `CC[C@@]1(O)C(=O)OCc2c1cc1n(c2=O)Cc2cc3c(NC(=O)CN)cccc3nc2-1`, 538 µM.
Take `Cn1c(=O)c2nc(COc3ccc(C(C)(C)C)cc3)[nH]c2n(C)c1=O`: the Kis in test [1] was > 450 µM.
In turn, `Cc1cccc(C)c1NC(=O)Nc1ccc(S(N)(=O)=O)cc1` returned a Kis in test [1] of 1760 µM.
On the same count and under the same terms, under `O=Cc1c[nH]c2ncccc12` stands 7190 µM.
As for `O=c1cc(-c2ccc(O)cc2)oc2c(O)c(O)c(O)c(O)c12`, the Kis in test [1] worked out at 18.8 µM.
The same measure, in the same setting: under `Oc1cc(-c2nn[nH]n2)nc(O)n1` stands > 450 µM.
Consider `O[C@@H]1[C@H](OCc2ccccc2)OC[C@@H](O)[C@H]1O`, for which the Kis in test [1] was > 450 µM.
The same measure, in the same setting: under `Nc1nc2c[nH]c(N)nc-2n1` stands 31.7 µM; under `O=C(O)CCNC1CCCCC1`, 3300 µM.
Turning to `Nc1nc(N)c(/N=N/c2ccc(S(N)(=O)=O)cc2)c(O)n1`, the Kis in test [1] worked out at 128 µM.
On the same count and under the same terms, under `COc1ccc(C(=O)O)nc1C` stands 2780 µM; under `O=C(O)Cc1ccc(/N=N/c2c(O)c(C(=O)O)cc3ccccc23)cc1`, 33.5 µM; under `Nc1nc(N)c(/N=N/c2ccc(SCC(=O)O)cc2)c(O)n1`, 730 µM.
